From publication PMC10666288, “Unveiling the Catalytic Mechanism of a Processive Metalloaminopeptidase” (Biochemistry, 2023)
Where two headings read alike, the source gives them in different places.

Key:
Type in all cases: biochemical
Parameters in all cases: GG stays after cleavage) (N); made in house; host or cells: E. coli BL21(DE3)
PaPepA [1] = molecular target: T1, PaPepA (Pseudomonas aeruginosa, UniProt Q02RY8); conditions: aa-pNA varied, 3 mM MnCl2, 100 nM PaPepA, pH 8.0, 25 °C
Method: (§1) A BMG Labtech POLARstar Omega plate reader was used for activity assays and kinetic studies involving amino acids conjugated to para-nitroaniline (pNA) (Sigma) or peptides as substrates. Assays were carried out at 25 °C in clear half-area 96-well plates (Greiner Bio-One). […] For kinetic assays investigating Leu-AMC as a substrate, a SpectraMax M2E was used. Reactions were carried out using black half-area 96-well plates with clear bottoms (Greiner Bio-One). Product formation was assessed by monitoring changes in fluorescence, with the excitation wavelength set at 341 nm and emission at 441 nm. The cutoff was 420 nm. PMT gain was set to medium, with six flashes per read. […] Calibration curves of pNA concentration vs absorbance and AMC vs fluorescence were constructed, and initial rate values were divided by the slope of these calibration curves to reveal the rate of product formation over time (Table S2).
(§2) For all assays excluding pH dependence curves, buffer conditions were as follows: 100 mM HEPES, 50 mM KCl, and pH 8.0. For assays carried out under pseudo-first-order conditions, one reaction component was fixed and in excess, while the other was varied. […] For assays involving variation of aa-pNA or aa-AMC, MnCl2 was added to a final concentration of 3 mM.

PaPepA [2] = molecular target: T1, PaPepA; experiment: Metal activation of Leu-pNA cleavage (metal varied, Leu-pNA fixed); conditions: with 2 mM Leu-pNA, pH 8.0
Method: as §1, §2

PaPepA [3] = molecular target: T1, PaPepA; experiment: Pre-steady-state stopped-flow kinetics with global fit; conditions: global fit
Method: An Applied Photophysics SX20 stopped-flow spectrofluorimeter was used to perform kinetic measurements under pre-steady-state conditions. The instrument was equipped with a xenon lamp, a 5 μL mixing cell, and a circulating water bath to maintain constant temperature. All reactions were carried out in 100 mM HEPES (pH 8.0) and 50 mM KCl at 25 °C. Enzyme and metal ions were kept in one syringe, while the other substrate (Leu-pNA or Leu-AMC) was kept in the second syringe. The reaction was triggered by rapid mixing of 55 μL from each syringe. Three traces with 10,000 points per trace were collected per experiment.
For absorbance measurements, product formation was monitored by reading the pNA absorbance at 405 nm (5 mm path length). Multiple turnover rates were measured in the presence of saturating concentrations of both metal and Leu-pNA. PaPepA was present at 1 or 10 μM, MnCl2 was present at 3 mM, and Leu-pNA was present at 250 μM. For fluorescence measurements, a path length of 1 mm was used. Reactions were followed by monitoring the appearance of a 7-amino-4-methylcoumarin (AMC) fluorophore following PaPepA-catalyzed breakdown of Leu-AMC. An excitation wavelength of 341 nm was used with a 400 nm cutoff filter for the emission. Slits were 1 nm for excitation and 2 nm for emission.
Experiments under single turnover conditions monitored fluorescence change with a detector voltage of 300 V, 0.1 μM Leu-AMC, 1.5 mM MnCl2, and varying PaPepA (0.5, 1, 2, 4, 8, 16, or 32 μM). Experiments under multiple turnover conditions monitored fluorescence change with a detector voltage of 250 V, 50 μM Leu-AMC, 1.2 μM PaPepA and varying concentrations of MnCl2 (0.2, 0.4, 0.6, 1.2, 2.4, 6, 9, 12, 18, 24, 60, 120, 1200, or 3600 μM).
Calibration curves of known concentrations of AMC were performed at detector voltages of 250 and 300 V. STO and MTO curves were divided by the slope of these calibration curves to convert the change in fluorescence observed to the concentration of AMC produced.
Pre-steady-state data were imported into KinTek Global Explorer and fit to linear or single-exponential equations using the aFit function to obtain standard deviation estimates. A kinetic model with five steps was considered, and rate constants and outputs were fitted according to this model. Initial estimates for rate constants were based on kcat and KM values. The FitSpace Editor was employed to determine confidence intervals for each of the rate constants. More details including model fitted and parameters used are available in the Supporting Information.
Supporting information note 4: Kintek Global Explorer fitting of stopped flow data Both MTO and STO pre-steady-state data were fit according to the mode described in Figure 4A with scaling factors for each fluorescent species (EP and P) to account for differences in AMC fluorescence whilst in complex with PaPepA versus free in solution. Scaling factors were different across STO and MTO experiments as both were carried out using different detector voltages.
The model that best fitted acquired data was as below, where F is metal free enzyme, E1 is PaPepA with one Mn2+ ion, E is PepA with two Mn2+ ions, S is Leu- […]
For fitting, k1 and k-1 ratios were constrained (linked) based KD for Mn2+ binding as measured by ITC (12nM). Initially, k2 and k-2 were allowed to vary without constraints, and values best fitted as well as Fitspace lower and upper boundaries are reported in Table 2. The value for k1 was best fitted as diffusion limited, and therefore was fixed in further fitting cycles. The best fitted value for k-2 was high and unconstrained, and therefore also fixed at 1000 s-1 for further fitting cycles. k3, k-3, k4, and k5 were not constrained. Multiple iterations of fitting were performed, and best fit values recorded. k1, k2, k3, k-3, k4, and k5 were evaluated using FitSpace Explorer to generate confidence intervals for each of these rate constants. […]

PaPepA [4] = molecular target: T1, PaPepA; conditions: 5 % PEG 8000, labelled component varied, other saturating; in 1/s
PaPepA [5] = molecular target: T1, PaPepA; conditions: labelled component varied
Source text: Viscosity effects were studied by using sucrose as a viscogen. Relative viscosities for different concentrations of sucrose were taken from Bazelyansky et al.[27] Concentrations of viscogen were as follows: 14% sucrose, ηrel = 1.5; 24% sucrose, ηrel = 2.2; and 32% sucrose, ηrel = 2.9.
Viscosity effects were fit to the following equation, where kinetic parameter0 and kinetic parameterη are kcat or kcat/KM in the […] of viscogen, respectively, ηrel is the relative viscosity of the solution, and m is the slope. [drawing 4] 4
All measurements were performed in triplicate.

PaPepA [6] = molecular target: T1, PaPepA; experiment: Alcohol dehydrogenase peptide degradation assay (LC-MS); conditions: MassPREP ADH digest, 100 nM PaPepA, 3 mM MnCl2, overnight
Method: A vial of MassPREP ADH digestion standard (Waters) was reconstituted in 200 μL of LC-MS grade water. Reaction mixtures were prepared by combining 25 μL of ADH solution, 3 mM MnCl2, and 100 nM PaPepA (final concentrations) in a total volume of 50 μL buffer (100 mM HEPES pH 8.0, 50 mM KCl). For control reactions, the addition of PaPepA was omitted. Samples and controls were each prepared in triplicate and incubated overnight, and reactions quenched with the addition of […] of 10% TCA. Following the addition of acid, PaPepA was added to control samples to a final concentration of 50 nM (equivalent to a concentration of enzyme in the reaction samples following acid quenching). Samples were concentrated to 20 μL. A 1 μL portion of this was diluted in 100 μL of LC-MS grade water. 10 μL was injected and analyzed on a SCIEX TripleTOF 5600+ mass spectrometer with an Eksigent 425 nanoLC configured in trap elute configuration. Each sample was loaded onto the trap (Waters ACQUITY M-Class symmetry column 180 μm × 20 mm) and washed with 0.05% TFA in water for 5 min at 5 μL/min. The trap was then switched in line with the Waters M-Class HSS1 analytical column, 75 μm × 150 mm, with a flow rate of 300 nL/min. Samples were eluted over 30 min using a linear gradient from 98% A (100% water 0.1% FA) 2% B (80% MeCN, […] 0.1% FA) to 60% A, 40% B linearly over 12 min, rising to 5% A, 95% B, before returning to 98% A to re-equilibrate. Eluate from the column was sprayed directly into the nanospray source of the mass spectrometer. MS data were collected from 400 to 1250 m/z as the survey scan, and under data-dependent acquisition (DDA) setting, the top 20 strongest peptides were selected for MS/MS using CID fragmentation. Peptide mass tolerance was 20 ppm on the MS and 0.1 Da on the MS/MS.
Identification and analysis of ADH peptides were performed using the Skyline open-access software package (version 22.2). Raw data were extracted using msConvert (ProteoWizard) and the data searched using Skyline against the ADH1 sequence from Saccharomyces cerevisiae (UniProt: P00330). The digestion enzyme was set as trypsin, allowing up to three missed cleavages. Searches encompassed peptides between 400 and 1250 m/z with a mass tolerance of 0.3 m/z. Carbamidomethyl was set as a fixed modification for cysteine residues. Data were searched for the protonated 1+, 2+, and 3+ charge states of each peptide.
Peaks were integrated, and areas were used to qualitatively assess differences in peptide abundances across PaPepA-digested samples and controls. Peptides present in control samples but absent in reactions (integrated area <1000) were classified as “digested”.

T1 sequence (Q02RY8 whole entry): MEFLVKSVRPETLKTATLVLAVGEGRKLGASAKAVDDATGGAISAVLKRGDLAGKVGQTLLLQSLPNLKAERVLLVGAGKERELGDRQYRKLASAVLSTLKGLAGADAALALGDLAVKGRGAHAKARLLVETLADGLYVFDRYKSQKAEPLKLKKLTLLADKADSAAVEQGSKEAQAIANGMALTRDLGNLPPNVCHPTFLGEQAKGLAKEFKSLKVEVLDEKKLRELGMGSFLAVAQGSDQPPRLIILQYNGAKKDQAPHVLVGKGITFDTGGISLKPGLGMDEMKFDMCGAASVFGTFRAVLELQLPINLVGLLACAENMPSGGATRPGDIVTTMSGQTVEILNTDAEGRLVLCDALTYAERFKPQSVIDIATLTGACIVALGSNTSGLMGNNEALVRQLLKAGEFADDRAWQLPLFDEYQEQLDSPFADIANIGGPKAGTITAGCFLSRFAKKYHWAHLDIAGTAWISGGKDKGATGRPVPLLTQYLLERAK

Molecule: C[C@H](N)C(=O)Nc1ccc([N+](=O)[O-])cc1 [Ala-pNA]
- Km (PaPepA [1]): 220 ± 30 µM
- kcat (PaPepA [1]): 0.037 ± 0.001 s^–1

Molecule: [Co+2] [Co^2+]
- KACT (PaPepA [2]): 0.17 ± 0.01 mM
- kcat (PaPepA [2]): 0.137 ± 0.002 s^–1
- kcat/KACT (PaPepA [2]): 0.80 ± 0.06 s^–1mM^–1

Molecule: [Fe+2] [Fe^2+]
- KACT (PaPepA [2]): >10 mM
- kcat (PaPepA [2]): 0.012 ± 0.003 s^–1

Molecule: CCC(C)[C@H](N)C(=O)Nc1ccc([N+](=O)[O-])cc1 (some centres unmarked) [Ile-pNA]
- Km (PaPepA [1]): 100 ± 30 µM
- kcat (PaPepA [1]): 0.004 ± 0.000 s^–1

Molecule: Cc1cc(=O)oc2cc(NC(=O)[C@H](N)CC(C)C)ccc12 [Leu-AMC]
- k3, best-fitted value (PaPepA [3]; E + S = ES, S is Leu-AMC): 2.3 ± 0.1 μM^–1 s^–1
- k-3, best-fitted value (PaPepA [3]; E + S = ES, reverse, S is Leu-AMC): 47.9 ± 0.6 s^–1
- k5, best-fitted value (PaPepA [3]; EP = E + P): 13.4 ± 0.1 s^–1
- k4, best-fitted value (PaPepA [3]; ES = EP): 6.3 ± 0.1 s^–1

Molecule: CC(C)C[C@H](N)C(=O)Nc1ccc([N+](=O)[O-])cc1 [Leu-pNA, reference compound]
- kcat (PaPepA [4]): 0.391 ± 0.008
- Km (PaPepA [1]): 160 ± 10 µM
- kcat (PaPepA [1]): 0.254 ± 0.005 s^–1
- kcat (PaPepA [5]; H2O (0% PEG-8000), other saturating, in 1/s): 0.335 ± 0.004
- Slope (sucrose) on kcat (PaPepA [5]; sucrose as viscogen): 0.03 ± 0.01

Molecule: NCCCC[C@H](N)C(=O)Nc1ccc([N+](=O)[O-])cc1 [Lys-pNA]
- Km (PaPepA [1]): 280 ± 40 µM
- kcat (PaPepA [1]): 0.039 ± 0.002 s^–1

Molecule: CSCC[C@H](N)C(=O)Nc1ccc([N+](=O)[O-])cc1 [Met-pNA]
- Km (PaPepA [1]): 150 ± 20 µM
- kcat (PaPepA [1]): 0.084 ± 0.003 s^–1

Molecule: [Ni+2] [Ni^2+]
- KACT (PaPepA [2]): 2.5 ± 0.4 mM
- kcat (PaPepA [2]): 0.077 ± 0.003 s^–1
- kcat/KACT (PaPepA [2]): 0.032 ± 0.005 s^–1mM^–1

Molecule: N[C@@H](Cc1ccccc1)C(=O)Nc1ccc([N+](=O)[O-])cc1 [Phe-pNA]
- Km (PaPepA [1]): 260 ± 50 µM
- kcat (PaPepA [1]): 0.115 ± 0.008 s^–1

Molecule: O=C(Nc1ccc([N+](=O)[O-])cc1)[C@@H]1CCCN1 [Pro-pNA]
- kcat (PaPepA [1]): 0.081 ± 0.003 s^–1
- Km (PaPepA [1]; read-out: KM): 1200 ± 80 µM

Molecule: CC(C)[C@H](N)C(=O)Nc1ccc([N+](=O)[O-])cc1 [Val-pNA]
- Km (PaPepA [1]): 50 ± 40 µM
- kcat (PaPepA [1]): 0.002 ± 0.001 s^–1

Molecule: EKDIVGAVLK [tryptic peptide of yeast ADH (MassPREP digestion standard)]
- Cleaved? (PaPepA [6]): Not digested

Molecule: GVIFYESHGK [tryptic peptide of yeast ADH (MassPREP digestion standard)]
- Cleaved? (PaPepA [6]): Digested (Peptides present in control samples but absent in reactions (integrated area <1000) were classified as “digested”)

Molecule: VLGIDGGEGK [tryptic peptide of yeast ADH (MassPREP digestion standard)]
- Cleaved? (PaPepA [6]): Digested (Peptides present in control samples but absent in reactions (integrated area <1000) were classified as “digested”)

Molecule: YSGVC[+57.0]HTDLHAWHGDWPLPVK: tryptic peptide of yeast ADH, carbamidomethyl cysteine
- Cleaved? (PaPepA [6]): Digested (Peptides present in control samples but absent in reactions (integrated area <1000) were classified as “digested”)
